Measurements as given in US11401270B2, “Alcoxyamino derivatives for treating pain and pain related conditions” (ESTEVE PHARMACEUTICALS, S.A., priority 2017, dated 2022).
Read-outs that look alike come from different tables or passages of the source.

Legend:
[1] = target: Human α2δ-1 subunit of Cav2.2 calcium channel (Homo sapiens (Human), UniProt P54289); test: Binding Assay to Human α2δ-1 Subunit of Cav2.2 Calcium Channel; details: human α2δ-1 enriched membranes, 15 nM [3H]-Gabapentin, read-out: Ki(nM) alpha2delta Hum
Method in brief: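 Radioligand filtration binding at the α2δ-1 subunit, test compound at five concentrations; nonspecific binding defined with 10 μM pregabalin. Incubated 60 min at 27 °C, stopped by GF/C filtration (0.5% PEI presoaked) with ice-cold 50 mM Tris-HCl pH 7.4 washes; bound radioactivity counted by scintillation.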

[2] = target: Human norepinephrine transporter (NET) (Homo sapiens (Human), UniProt P23975); test: Binding Assay to Human Norepinephrine Transporter (NET); details: Table 2, dual compounds; human NET enriched membranes, 5 nM [3H]-Nisoxetin; read-out: Ki(nM) NET Hum
Method: Binding Assay to Human Norepinephrine Transporter (NET).
Human norepinephrine transporter (NET) enriched membranes (5 μg) were incubated with 5 nM of radiolabeled [3H]-Nisoxetin in assay buffer containing 50 mM Tris-HCl, 120 mM NaCl, 5 mM KCl, pH 7.4.
NSB (non specific binding) was measured by adding 10 μM desipramine. The binding of the test compound was measured in five different concentrations. After 60 min incubation at 4° C., binding reaction was terminated by filtering through Multiscreen GF/C (Millipore) presoaked in 0.5% polyethyleneimine in Vacuum Manifold Station, followed by 3 washes with ice-cold filtration buffer containing 50 mM Tris-HCl, 0.9% NaCl, pH 7.4.
Filter plates were dried at 60° C. for 1 hour and 30 μl of scintillation cocktail were added to each well before radioactivity reading.

Human α2δ-1 subunit of Cav2.2 calcium channel, sequence (P54289 25-1103): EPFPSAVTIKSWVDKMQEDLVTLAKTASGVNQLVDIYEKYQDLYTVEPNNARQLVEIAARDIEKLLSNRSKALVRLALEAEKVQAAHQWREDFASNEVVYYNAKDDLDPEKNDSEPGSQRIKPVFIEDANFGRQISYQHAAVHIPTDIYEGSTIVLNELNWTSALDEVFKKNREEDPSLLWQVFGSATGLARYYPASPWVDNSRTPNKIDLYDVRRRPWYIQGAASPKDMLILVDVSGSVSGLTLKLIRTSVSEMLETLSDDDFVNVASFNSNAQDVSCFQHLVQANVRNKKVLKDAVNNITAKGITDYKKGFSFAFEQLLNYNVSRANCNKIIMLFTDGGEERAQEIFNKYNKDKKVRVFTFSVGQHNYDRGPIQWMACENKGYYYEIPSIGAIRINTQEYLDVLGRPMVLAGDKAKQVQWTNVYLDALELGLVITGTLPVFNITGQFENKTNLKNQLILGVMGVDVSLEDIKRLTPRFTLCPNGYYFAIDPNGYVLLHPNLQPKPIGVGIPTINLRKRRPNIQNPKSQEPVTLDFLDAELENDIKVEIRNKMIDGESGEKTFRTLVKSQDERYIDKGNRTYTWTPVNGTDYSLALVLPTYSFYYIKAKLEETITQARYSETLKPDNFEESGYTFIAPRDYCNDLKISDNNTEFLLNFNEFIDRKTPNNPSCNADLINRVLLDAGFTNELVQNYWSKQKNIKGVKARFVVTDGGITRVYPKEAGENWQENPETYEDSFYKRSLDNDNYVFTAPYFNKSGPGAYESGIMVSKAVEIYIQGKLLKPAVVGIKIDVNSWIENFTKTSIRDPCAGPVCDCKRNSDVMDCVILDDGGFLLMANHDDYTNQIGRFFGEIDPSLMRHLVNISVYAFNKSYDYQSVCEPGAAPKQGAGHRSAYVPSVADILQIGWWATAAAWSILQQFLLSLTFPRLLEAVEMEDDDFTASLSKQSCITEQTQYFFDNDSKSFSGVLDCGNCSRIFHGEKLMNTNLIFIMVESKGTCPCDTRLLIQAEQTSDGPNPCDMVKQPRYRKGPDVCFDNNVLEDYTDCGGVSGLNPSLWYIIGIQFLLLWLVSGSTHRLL
Human norepinephrine transporter (NET), sequence (P23975 whole entry): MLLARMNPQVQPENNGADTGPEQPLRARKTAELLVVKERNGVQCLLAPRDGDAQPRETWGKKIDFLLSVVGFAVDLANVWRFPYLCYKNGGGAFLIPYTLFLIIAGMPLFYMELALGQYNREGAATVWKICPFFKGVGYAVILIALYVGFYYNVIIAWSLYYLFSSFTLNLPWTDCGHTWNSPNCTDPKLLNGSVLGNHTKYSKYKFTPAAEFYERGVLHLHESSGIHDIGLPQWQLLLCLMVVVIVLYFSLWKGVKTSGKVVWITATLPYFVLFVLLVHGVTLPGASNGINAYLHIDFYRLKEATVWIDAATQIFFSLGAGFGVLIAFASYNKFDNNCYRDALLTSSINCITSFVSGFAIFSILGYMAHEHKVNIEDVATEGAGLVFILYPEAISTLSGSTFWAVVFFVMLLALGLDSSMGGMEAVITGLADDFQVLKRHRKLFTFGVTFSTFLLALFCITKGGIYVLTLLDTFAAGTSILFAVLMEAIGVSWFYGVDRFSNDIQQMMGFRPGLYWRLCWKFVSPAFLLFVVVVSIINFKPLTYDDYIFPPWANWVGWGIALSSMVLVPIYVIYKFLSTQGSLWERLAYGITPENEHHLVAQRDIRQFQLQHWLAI

SMILES	Ki ([1]; Table 1) [nM]	Ki ([1]; Table 2, dual compounds) [nM]	Ki [2] [nM]
CNCC[C@H](Oc1cccc(N2CCN(C)c3nc(C)ccc3C2=O)c1)c1ccsc1 [Example 80, (S)-1,8-dimethyl-4-(3-(3-(methylamino)-1-(thiophen-3-yl)propoxy)phenyl)-1,2,3,4-tetrahydro-5H-pyrido[2,3-e][1,4]diazepin-5-one]	100 to 500	100 to 500	< 100
CNCC[C@H](Oc1cccc(N2CCN(C)c3nc(C(F)(F)F)ccc3C2=O)c1)c1cccs1 [Example 81, (S)-1-methyl-4-(3-(3-(methylamino)-1-(thiophen-2-yl)propoxy)phenyl)-8-(trifiuoromethyl)-1.2.3,4-tetrahydro-5H-pyrido[2.3-e][1,4]diazepin-5-one]	100 to 500	100 to 500	500 to 1000
CNCC[C@H](Oc1cccc(N2CCN(C)c3nc(N)ccc3C2=O)c1)c1cccs1 [Example 83, (S)-8-amino-1-methyl-4-(3-(3-(methylamino)-1-(thiophen-2-yl)propoxy)phenyl)-1,2,3,4-tetrahydro-5H-pyrido[2,3-e][1,4]diazepin-5-one]	100 to 500	100 to 500	100 to 500
CNCCC(OCc1cccc(N2CCN(C)CCC2=O)c1)c1cccs1 (stereo not drawn) [Example 84, 1-Methyl-4-(3-((3-(methylamino)-1-(thiophen-2-yl)propoxy)methyl)phenyl)-1,4-diazepan-5-one]	500 to 3000	500 to 3000	100 to 500
CCNC[C@H]1CC(=O)N(c2cccc(O[C@@H](CCNC)c3cccs3)c2)CCN1C [Example 86, (R)-7-((ethylamino)methyl)-1-methyl-4-(3-((S)-3-(methylamino)-1-(thiophen-2-yl)propoxy)phenyl)-1,4-diazepan-5-one]	500 to 3000	500 to 3000	100 to 500
CNCC[C@H](Oc1ccc(CN2CCN(C)c3ncccc3C2=O)cc1)c1cccs1 [Example 90, (S)-1-methyl-4-(4-(3-(methylamino)-1-(thiophen-2-yl)propoxy)benzyl)-1,2,3,4-tetrahydro-5H-pyrido[2,3-e][1,4]diazepin-5-one]	< 100	< 100	100 to 500
CNCC[C@H](Oc1ccc(CN2CCN(C)c3nc(C)ccc3C2=O)cc1)c1cccs1 [Example 91, (S)-1,8-dimethyl-4-(4-(3-(methylamino)-1-(thiophen-2-yl)propoxy)benzyl)-1,2,3,4-tetrahydro-5H-pyrido[2,3-e][1,4]diazepin-5-one]	100 to 500	100 to 500	100 to 500
CCNc1ccc2c(n1)N(C)CCN(Cc1ccc(O[C@@H](CCNC)c3cccs3)cc1)C2=O [Example 92, (S)-8-(ethylamino)-1-methyl-4-(4-(3-(methylamino)-1-(thiophen-2-yl)propoxy)benzyl)-1,2,3,4-tetrahydro-5H-pyrido[2,3-e][1,4]diazepin-5-one]	100 to 500	100 to 500	< 100
CNCC[C@H](Oc1ccc(CN2CCN(C)c3nc(C(F)(F)F)ccc3C2=O)cc1)c1cccs1 [Example 93, (S)-1-methyl-4-(4-(3-(methylamino)-1-(thiophen-2-yl)propoxy)benzyl)-8-(trifluoromethyl)-1,2,3,4-tetrahydro-5H-pyrido[2,3-e][1,4]diazepin-5-one]	100 to 500	100 to 500	100 to 500
CNCC[C@H](Oc1ccc(CN2CCN(C)c3nc(OC)ccc3C2=O)cc1)c1cccs1 [Example 94, (S)-8-methoxy-1-methyl-4-(4-(3-(methylamino)-1-(thiophen-2-yl)propoxy)benzyl)-1,2,3,4-tetrahydro-5H-pyrido[2,3-e][1,4]diazepin-5-one]	100 to 500	100 to 500	100 to 500
CNCC[C@H](Oc1ccc(CN2CCN(C)c3cnccc3C2=O)cc1)c1cccs1 [Example 96, (S)-1-methyl-4-(4-(3-(methylamino)-1-(thiophen-2-yl)propoxy)benzyl)-1,2,3,4-tetrahydro-5H-pyrido[3,4-e][1,4]diazepin-5-one]	100 to 500	100 to 500	100 to 500
CNCC[C@H](Oc1ccc(CN2CCN(C)c3cccnc3C2=O)cc1)c1cccs1 [Example 97, (S)-1-methyl-4-(4-(3-(methylamino)-1-(thiophen-2-yl)propoxy)benzyl)-1,2,3,4-tetrahydro-5H-pyrido[3,2-e][1,4]diazepin-6-one]	500 to 3000	500 to 3000	100 to 500
CNCC[C@H](Oc1ccc(CN2CCN(C)c3ccccc3C2=O)cc1)c1cccs1 [Example 98, (S)-1-methyl-4-(4-(3-(methylamino)-1-(thiophen-2-yl)propoxy)benzyl)-1,2,3,4-tetrahydro-5H-benzo[e][1,4]diazepin-5-one]	500 to 3000	500 to 3000	100 to 500
CNCCC(Oc1ccc(CN2CCN(C)c3ncccc3C2=O)cc1)c1cccs1 (stereo not drawn) [Example 99, 1-Methyl-4-(4-(3-(methylamino)-1-(thiophen-2-yl)propoxy)benzyl)-1,2,3,4-tetrahydro-5H-pyrido[2,3-e][1,4]diazepin-5-one]	< 100	< 100	< 100
CNCCC(Oc1ccc(CN2CCN(C)c3nc(C)ccc3C2=O)cc1)c1cccs1 (stereo not drawn) [Example 100, 1,8-Dimethyl-4-(4-(3-(methylamino)-1-(thiophen-2-yl)propoxy)benzyl)~ 1,2,3,4-tetrahydro-5H-pyrido[2,3-e][1,4]diazepin-5-one]	100 to 500	100 to 500	500 to 1000
CNCC[C@H](Oc1ccc(CN2CCN(C)c3nc(N)ccc3C2=O)cc1)c1cccs1 [Example 103, (S)-8-amino-1-methyl-4-(4-(3-(methylamino)-1-(thiophen-2-yl)propoxy)benzyl)-1,2,3,4-tetrahydro-5H-pyrido[2,3-e][1,4]diazepin-5-one]	< 100	< 100	< 100
CNCC[C@H](Oc1ccc(CN2CCCn3nccc3C2=O)cc1)c1cccs1 [Example 104, (S)-5-(4-(3-(methylamino)-1-(thiophen-2-yl)propoxy)benzyl)-5,6,7,8-tetrahydro-4H-pyrazolo[1,5-a][1,4]diazepin-4-one]	100 to 500	100 to 500	100 to 500
CNCC[C@H](Oc1ccc(CN2CCN(C)c3ncccc3C2=O)c(F)c1)c1cccs1 [Example 108, (S)-4-(2-fluoro-4-(3-(methylamino)-1-(thiophen-2-yl)propoxy)benzyl)-1-methyl-1,2,3,4-tetrahydro-5H-pyrido[2,3-e)[1,4]diazepin-5-one]	< 100	< 100	100 to 500
CNCCC(Oc1ccc(CN2CCN(C)c3nc(C)ccc3C2=O)cc1)c1ccccc1 (stereo not drawn) [Example 110, 1,8-Dimethyl-4-(4-(3-(methylamino)-1-phenylpropoxy)benzyl)-1,2,3,4-tetrahydro-5H-pyrido[2,3-e][1,4]diazepin-5-one]	500 to 3000	500 to 3000	< 100
CCNc1ccc2c(n1)N(C)CCN(Cc1ccc(OC(CCNC)c3ccccc3)cc1)C2=O (stereo not drawn) [Example 111, 8-(Ethylamino)-1-methyl-4-(4-(3-(methylamino)-1-phenylpropoxy)benzyl)-1,2,3,4-tetrahydro-5H-pyrido[2,3-e][1,4]diazepin-5-one]	500 to 3000	500 to 3000	< 100
CNCC[C@H](Oc1ccc(CN2CCN(C)c3ncccc3C2=O)c(C)c1)c1ccccc1 [Example 114, (S)-1-methyl-4-(2-methyl-4-(3-(methylamino)-1-phenylpropoxy)benzyl)-1,2,3,4-tetrahydro-5H-pyrido[2,3-e][1,4]diazepin-5-one]	100 to 500	100 to 500	100 to 500
CNCCC(Oc1ccc(CN2CCN(C)c3ncccc3C2=O)cc1)c1ccc(F)cc1 (stereo not drawn) [Example 115, 4-(4-(1-(4-Fluorophenyl)-3-(methylamino)propoxy)benzyl)-1-methyl-1,2,3,4-tetrahydro-5H-pyrido[2,3-e][1,4]diazepin-5-one]	500 to 3000	500 to 3000	< 100
CNCC[C@H](Oc1ccc(CN2CCN(C)c3ncccc3C2=O)c(F)c1)c1ccccc1 [Example 116, (S)-4-(2-fluoro-4-(3-(methylamino)-1-phenylpropoxy)benzyl)-1-methyl-1,2,3,4-tetrahydro-5H-pyrido[2,3-e][1,4]diazepin-5-one]	< 100	< 100	< 100
CNCCC(Oc1ccc(CN2CCN(C)c3ncccc3C2=O)cc1)c1cccc(F)c1 (stereo not drawn) [Example 117, 4-(4-(1-(3-Fluorophenyl)-3-(methylamino)propoxy)benzyl)-1-methyl-1,2,3,4-tetrahydro-5H-pyrido[2,3-e][1,4]diazepin-5-one]	100 to 500	100 to 500	< 100
CNCCC(Oc1ccc(F)c(N2CCN(C)c3ncccc3C2=O)c1)c1cccc(F)c1 (stereo not drawn) [Example 119, 4-(2-Fluoro-5-(1-(3-ftuorophenyl)-3-(methylamino)propoxy)phenyl)-1-methyl-1,2,3,4-tetrahydro-5H-pyrido[2,3-e][1,4]diazepin-5-one]	100 to 500	100 to 500	< 100
